Measurements as given in patent US8871753B2, “Macrocyclic compounds and their use as kinase inhibitors” (Incyte Corporation, priority 2008, dated 2014).
Counter-ions that a name gives are not always drawn. Like-named read-outs stand apart in the source and are kept apart here.

Experiments:
Assay type in all cases: biochemical
[1] = biological target: T1, human JAK1 (a.a. 837-1142) (Homo sapiens, UniProt P23458); test: In vitro JAK kinase assay (HTRF, phosphorylation of a biotinylated peptide), JAK1; details: read-out: JAK1 IC50
T1 construct: human JAK1 (a.a. 837-1142); His tag (N); made in house; host or cells: insect cells (baculovirus)
T1 sequence (P23458 849-1154): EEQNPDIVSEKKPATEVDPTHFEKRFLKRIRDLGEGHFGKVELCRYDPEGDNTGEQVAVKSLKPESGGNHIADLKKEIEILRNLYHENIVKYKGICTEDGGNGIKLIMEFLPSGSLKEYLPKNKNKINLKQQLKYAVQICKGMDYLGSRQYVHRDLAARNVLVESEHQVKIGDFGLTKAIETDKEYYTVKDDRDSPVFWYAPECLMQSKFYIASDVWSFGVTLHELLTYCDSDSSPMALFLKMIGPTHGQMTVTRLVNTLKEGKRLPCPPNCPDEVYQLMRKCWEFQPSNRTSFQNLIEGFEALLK
Method in brief: (§1)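 Kinase reactions ran at room temperature for 1 h with ATP matched per isoform (JAK1 90 μM, JAK2 30 μM, JAK3 3 μM). After an EDTA stop, the phosphorylated biotin-peptide was read by HTRF using Eu-Py20 and SA-APC after 40 min binding.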

[2] = biological target: T2, human JAK2 (a.a. 828-1132) (Homo sapiens, UniProt O60674); test: In vitro JAK kinase assay (HTRF, phosphorylation of a biotinylated peptide), JAK2
T2 construct: JAK2 (a.a. 828-1132); His tag (N); made in house; host or cells: insect cells (baculovirus)
T2 sequence (O60674 828-1132): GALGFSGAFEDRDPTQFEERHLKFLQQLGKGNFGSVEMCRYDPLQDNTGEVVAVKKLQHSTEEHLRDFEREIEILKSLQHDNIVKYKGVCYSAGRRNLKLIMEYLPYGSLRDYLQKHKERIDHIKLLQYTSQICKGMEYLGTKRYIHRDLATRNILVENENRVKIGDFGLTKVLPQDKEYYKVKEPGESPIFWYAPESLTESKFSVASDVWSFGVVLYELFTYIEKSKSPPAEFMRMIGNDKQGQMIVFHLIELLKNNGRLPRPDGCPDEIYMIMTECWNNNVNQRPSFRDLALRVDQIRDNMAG
Method in brief: as §1

[3] = biological target: T3, human JAK3 (a.a. 781-1124) (Homo sapiens, UniProt P52333); test: In vitro JAK kinase assay (HTRF, phosphorylation of a biotinylated peptide), JAK3
T3 construct: JAK3 (a.a. 781-1124); His tag (N); made in house; host or cells: insect cells (baculovirus)
T3 sequence (P52333 781-1124): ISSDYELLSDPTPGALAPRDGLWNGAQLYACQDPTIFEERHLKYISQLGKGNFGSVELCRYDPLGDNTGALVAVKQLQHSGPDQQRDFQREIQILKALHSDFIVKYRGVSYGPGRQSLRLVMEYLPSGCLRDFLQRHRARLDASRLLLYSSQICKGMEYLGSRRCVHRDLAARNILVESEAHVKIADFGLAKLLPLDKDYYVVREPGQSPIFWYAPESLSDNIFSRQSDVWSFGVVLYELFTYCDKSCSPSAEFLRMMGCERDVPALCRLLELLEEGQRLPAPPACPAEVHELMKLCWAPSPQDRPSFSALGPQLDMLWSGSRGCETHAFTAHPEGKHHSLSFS
Method in brief: as §1

[4] = biological target: TYK2 (Homo sapiens, UniProt P29597); test: TYK2 kinase inhibition (Table A1)
Chain of TYK2 (P29597 whole entry): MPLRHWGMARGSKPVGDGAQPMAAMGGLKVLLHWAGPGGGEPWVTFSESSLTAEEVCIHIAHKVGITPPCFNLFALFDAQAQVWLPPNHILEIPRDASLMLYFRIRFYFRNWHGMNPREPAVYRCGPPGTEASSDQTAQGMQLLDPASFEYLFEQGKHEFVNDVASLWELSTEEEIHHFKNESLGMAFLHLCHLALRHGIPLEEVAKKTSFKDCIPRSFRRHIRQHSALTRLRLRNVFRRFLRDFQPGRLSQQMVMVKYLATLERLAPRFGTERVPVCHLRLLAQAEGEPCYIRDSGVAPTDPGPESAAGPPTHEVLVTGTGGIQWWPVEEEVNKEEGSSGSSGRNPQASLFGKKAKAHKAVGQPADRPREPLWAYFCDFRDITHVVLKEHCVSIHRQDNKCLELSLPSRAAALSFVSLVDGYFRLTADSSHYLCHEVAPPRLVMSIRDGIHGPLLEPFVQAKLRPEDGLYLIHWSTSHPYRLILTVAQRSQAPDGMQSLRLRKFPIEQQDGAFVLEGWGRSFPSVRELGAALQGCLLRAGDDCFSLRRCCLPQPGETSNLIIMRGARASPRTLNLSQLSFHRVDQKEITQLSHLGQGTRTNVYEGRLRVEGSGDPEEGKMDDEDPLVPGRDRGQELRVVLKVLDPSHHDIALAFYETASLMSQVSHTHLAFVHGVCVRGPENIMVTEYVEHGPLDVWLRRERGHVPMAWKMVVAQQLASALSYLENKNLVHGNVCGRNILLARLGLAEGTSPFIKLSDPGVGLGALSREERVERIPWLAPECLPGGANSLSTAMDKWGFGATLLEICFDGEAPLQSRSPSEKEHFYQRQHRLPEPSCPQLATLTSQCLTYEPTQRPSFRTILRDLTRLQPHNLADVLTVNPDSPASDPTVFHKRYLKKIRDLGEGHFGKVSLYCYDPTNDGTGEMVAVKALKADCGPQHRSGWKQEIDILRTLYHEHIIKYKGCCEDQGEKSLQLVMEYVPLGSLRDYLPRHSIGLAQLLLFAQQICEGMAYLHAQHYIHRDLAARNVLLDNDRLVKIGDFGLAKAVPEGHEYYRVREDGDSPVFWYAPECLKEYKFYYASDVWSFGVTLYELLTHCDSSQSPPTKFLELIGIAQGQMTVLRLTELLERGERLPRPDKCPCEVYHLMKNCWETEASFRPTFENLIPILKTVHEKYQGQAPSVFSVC

[5] = biological target: T4, Recombinant Human Anaplastic Lymphoma Kinase (Homo sapiens, UniProt Q9UM73); test: ALK HTRF kinase assay
T4 construct: purchased Invitrogen, Carlsbad, Calif
T4 sequence (Q9UM73 19-1620): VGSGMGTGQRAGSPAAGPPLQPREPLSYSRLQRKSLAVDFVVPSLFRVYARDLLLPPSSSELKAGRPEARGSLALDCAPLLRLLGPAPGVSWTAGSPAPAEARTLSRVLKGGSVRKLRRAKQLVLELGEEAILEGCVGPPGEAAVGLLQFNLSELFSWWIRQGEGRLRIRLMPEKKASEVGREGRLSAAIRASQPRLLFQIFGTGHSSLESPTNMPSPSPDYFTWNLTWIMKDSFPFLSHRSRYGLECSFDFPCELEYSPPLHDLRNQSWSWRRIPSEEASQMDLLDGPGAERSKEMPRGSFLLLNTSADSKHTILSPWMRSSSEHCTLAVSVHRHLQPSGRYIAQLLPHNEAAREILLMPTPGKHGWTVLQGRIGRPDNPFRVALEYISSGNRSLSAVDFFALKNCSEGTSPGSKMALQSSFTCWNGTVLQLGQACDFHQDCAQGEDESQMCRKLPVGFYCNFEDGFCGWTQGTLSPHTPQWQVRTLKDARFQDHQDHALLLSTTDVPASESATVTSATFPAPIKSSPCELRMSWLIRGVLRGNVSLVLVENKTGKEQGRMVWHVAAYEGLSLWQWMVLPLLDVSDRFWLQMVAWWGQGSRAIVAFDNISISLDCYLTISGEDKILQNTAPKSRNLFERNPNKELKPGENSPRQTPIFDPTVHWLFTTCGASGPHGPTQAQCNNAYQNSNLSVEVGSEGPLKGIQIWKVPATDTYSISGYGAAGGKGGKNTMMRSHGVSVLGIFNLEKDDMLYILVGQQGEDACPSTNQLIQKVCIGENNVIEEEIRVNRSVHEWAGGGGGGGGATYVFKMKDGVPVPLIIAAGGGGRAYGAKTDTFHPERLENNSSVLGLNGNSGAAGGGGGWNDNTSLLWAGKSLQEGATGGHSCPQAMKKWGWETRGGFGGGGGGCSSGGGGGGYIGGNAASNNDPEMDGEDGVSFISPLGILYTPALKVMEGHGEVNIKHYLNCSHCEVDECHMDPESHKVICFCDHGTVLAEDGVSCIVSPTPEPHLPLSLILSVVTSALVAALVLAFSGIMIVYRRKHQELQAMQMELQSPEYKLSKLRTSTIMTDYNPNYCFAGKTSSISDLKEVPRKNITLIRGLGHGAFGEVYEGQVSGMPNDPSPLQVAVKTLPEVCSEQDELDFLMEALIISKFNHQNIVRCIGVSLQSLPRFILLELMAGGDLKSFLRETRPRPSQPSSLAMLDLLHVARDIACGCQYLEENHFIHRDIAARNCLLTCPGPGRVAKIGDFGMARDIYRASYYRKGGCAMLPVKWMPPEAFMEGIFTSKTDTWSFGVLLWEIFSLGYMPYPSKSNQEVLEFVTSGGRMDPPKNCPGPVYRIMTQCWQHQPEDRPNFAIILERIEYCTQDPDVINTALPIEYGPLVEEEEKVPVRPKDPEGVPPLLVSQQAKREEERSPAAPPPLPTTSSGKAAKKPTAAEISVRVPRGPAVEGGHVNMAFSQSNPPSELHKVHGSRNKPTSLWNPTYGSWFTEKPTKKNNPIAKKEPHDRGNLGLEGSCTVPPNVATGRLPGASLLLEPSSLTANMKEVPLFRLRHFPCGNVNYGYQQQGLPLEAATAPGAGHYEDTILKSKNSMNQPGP
Method in brief: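 IC50 was obtained from a logistic fit of signal versus log inhibitor concentration, using pre- and post-transition baselines and a Hill slope. The signal reported tyrosine phosphorylation of a biotinylated peptide by recombinant human kinase, detected as Eu-to-APC energy transfer.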

[6] = compound at a concentration of 500 nM or 1 mM (not specified), cells shown as percentage
[7] = percentage inhibition of the example compound at a concentration of 500 nM or 1 mM (not specified which)
[8] = method AA1 (90 μM ATP) or AA2 (1000 μM ATP), not stated per value
[9] = method AA1 (30 μM ATP) or AA2 (1000 μM ATP), not stated per value
[10] = method AA1 (3 μM ATP) or AA2 (1000 μM ATP), not stated per value
[11] = compound at 500 nM or 1 mM, 90 μM ATP

IC50 ([1]; Table B1) | IC50 ([2]; Table B1) | IC50 ([3]; Table B1) | IC50 ([4]; Table B1) | ALK % of inhibition at a concentration of 500 nM or 1 mM [5, 6] | IC50 [1, 8] | IC50 [2, 9] | IC50 [3, 10] | IC50 [4] | SMILES | also measured
1.4 nM | 2.3 nM | 19 nM | 3.6 nM | 19% |  |  |  |  | Cc1cc(C(=O)Nc2ccc3cc2CCc2cccc(c2)Nc2ncc(Cl)c(n2)N3)no1 [Example B68, N-[6-Chloro-2,4,8,22-tetraazatetracyclo[14.3.1.1(3,7).1(9,13)]docosa-1(20), 3(22),4,6,9(21),10,12,16,18-nonaen-12-yl]-5-methylisoxazole-3-carboxamide trifluoroacetate] | 
2 nM | 2.4 nM | 26 nM | 8.2 nM | 18% |  |  |  |  | O=C(NCCN1CCOCC1)Nc1ccc2cc1CCc1cccc(c1)Nc1ncc(Cl)c(n1)N2 [Example B254, N-[6-Chloro-2,4,8,22-tetraazatetracyclo[14.3.1.1(3,7).1(9,13)]docosa-1(20),3(22),4,6,9(21),10,12,16,18-nonaen-12-yl]-N′-(2-morpholin-4-ylethyl)urea bis(trifluoroacetate)] | 
0.81 nM | 2.9 nM | 13 nM | 5.4 nM | 24% |  |  |  |  | CNC(=O)Nc1ccc2cc1CCc1cccc(c1)Nc1ncc(Cl)c(n1)N2 [Example B114, N-[6-Chloro-2,4,8,22-tetraazatetracyclo[14.3.1.1(3,7).1(9,13)]docosa-1(20), 3(22),4,6,9(21),10,12,16,18-nonaen-12-yl]-N′-methylurea trifluoroacetate] | 
75 nM | 371 nM | > 400 nM | > 400 nM |  |  |  |  |  | O=C(Nc1ccc2cc1CCc1cncc(c1)Nc1ncc(Cl)c(n1)N2)N1CCC(S(=O)(=O)c2ccccc2)C1 (stereo not shown) [Example B321, N-[6-Chloro-2,4,8,18,22-pentaazatetracyclo[14.3.1.1(3,7).1(9,13)]docosa-1(20),3(22),4,6,9(21),10,12,16,18-nonaen-12-yl]-3-(phenylsulfonyl)pyrrolidine-1-carboxamide bis(trifluoroacetate)] | ALK % of inhibition at a concentration of 500 nM or 1 mM [5, 7]: 36%
 |  |  |  |  | 21 nM | 16 nM | 112 nM | 37 nM | Cc1cc(C(=O)N2CCC(C(=O)Nc3ccc4cc3CCc3cccc(c3)Nc3ncc(Cl)c(n3)N4)CC2)no1 [Example A120, N-[6-Chloro-2,4,8,22-tetraazatetracyclo[14.3.1.1(3,7).1(9,13)]docosa-1(20),3(22),4,6,9(21),10,12,16,18-nonaen-12-yl]-1-[(5-methylisoxazol-3-yl)carbonyl]piperidine-4-carboxamide trifluoroacetate] | ALK % of inhibition at a concentration of 500 nM or 1 mM [5, 11]: 42%
 |  |  |  |  |  |  |  | 60 nM | O=C1Cc2cccc(c2)Nc2ncc(Cl)c(n2)Nc2cccc(c2)N1 [Example C10, 6-Chloro-2,4,8,14,23-pentaazatetracyclo[15.3.1.1(3,7).1(9,13)]tricosa-1(21),3(23),4,6,9(22),10,12,17,19-nonaen-15-one trifluoroacetate] | IC50 [1]: 154 nM; IC50 [2]: 303 nM; IC50 [3]: > 1000 nM; IC50 [5]: > 10000 nM
 |  |  |  |  | 30 nM | 38 nM | 102 nM | 75 nM | N#Cc1ccc(C(=O)N2CCC(C(=O)Nc3ccc4cc3CCc3cccc(c3)Nc3ncc(Cl)c(n3)N4)CC2)cc1 [Example A33, N-[6-Chloro-2,4,8,22-tetraazatetracyclo[14.3.1.1(3,7).1(9,13)]docosa-1(20), 3(22),4,6,9(21),10,12,16,18-nonaen-12-yl]-1-(4-cyanobenzoyl)piperidine-4-carboxamide trifluoroacetate] | ALK % of inhibition at a concentration of 500 nM or 1 mM [5, 11]: 26%
19 nM | 161 nM | > 400 nM | 36 nM |  |  |  |  |  | N#Cc1ccc(N2CCN(C(=O)Nc3ccc4cc3CCc3cncc(c3)Nc3ncc(Cl)c(n3)N4)CC2)cc1 [Example B303, N-[6-Chloro-2,4,8,18,22-pentaazatetracyclo[14.3.1.1(3,7).1(9,13)]docosa-1(20),3(22),4,6,9(21),10,12,16,18-nonaen-12-yl]-4-(4-cyanophenyl)piperazine-1-carboxamide tris(trifluoroacetate)] | ALK % of inhibition at a concentration of 500 nM or 1 mM [5, 7]: 81%
5.7 nM | 7.8 nM | 60 nM | 25 nM | 19% |  |  |  |  | O=C(Nc1ccc2cc1CCc1cccc(c1)Nc1ncc(Cl)c(n1)N2)N[C@@H]1CCN(C(=O)c2ccccc2)C1 [Example B176, N-[(3R)-1-Benzoylpyrrolidin-3-yl]-N′-[6-chloro-2,4,8,22-tetraazatetracyclo[14.3.1.1(3,7).1(9,13)]docosa-1(20),3(22),4,6,9(21),10,12,16,18-nonaen-12-yl]urea trifluoroacetate] | 
0.45 nM | 0.6 nM | 3.6 nM | 2.3 nM | 68% |  |  |  |  | O=C(Nc1ccc2cc1CCc1cccc(c1)Nc1ncc(Cl)c(n1)N2)c1ccc(Cl)nc1 [Example B69, 6-Chloro-N-[6-chloro-2,4,8,22-tetraazatetracyclo[14.3.1.1(3,7).1(9,13)]docosa-1(20),3(22),4,6,9(21),10,12,16,18-nonaen-12-yl]nicotinamide bis(trifluoroacetate)] | 
 |  |  |  |  | 12 nM | 9.3 nM | 26 nM | 35 nM | Clc1cnc2nc1Nc1cccc(c1)CCc1cccc(c1)N2 [Example A2, 6-Chloro-2,4,8,22-tetraazatetracyclo[14.3.1.1(3,7).1(9,13)]docosa-1(20),3(22),4,6,9(21),10,12,16,18-nonaene trifluoroacetate] | IC50 ([5]; 90 μM ATP): 657 nM
 |  |  |  |  | 85 nM | 199 nM | > 200 nM | > 200 nM | COc1ccc(S(=O)(=O)N2CCC(CC(=O)Nc3ccc4cc3CCc3cccc(c3)Nc3ncc(Cl)c(n3)N4)CC2)cc1 [Example A207, N-[6-Chloro-2,4,8,22-tetraazatetracyclo[14.3.1.1(3,7).1(9,13)]docosa-1(20),3(22),4,6,9(21),10,12,16,18-nonaen-12-yl]-2-{1-[(4-methoxyphenyl)sulfonyl]piperidin-4-yl}acetamide trifluoroacetate] | ALK % of inhibition at a concentration of 500 nM or 1 mM [5, 11]: 23%
0.44 nM | 0.28 nM | 2.5 nM | 2.3 nM |  |  |  |  |  | Cn1cccc1C(=O)Nc1ccc2cc1CCc1cccc(c1)Nc1ncc(Cl)c(n1)N2 [Example B50, N-[6-Chloro-2,4,8,22-tetraazatetracyclo[14.3.1.1(3,7).1(9,13)]docosa-1(20), 3(22),4,6,9(21),10,12,16,18-nonaen-12-yl]-1-methyl-1H-pyrrole-2-carboxamide trifluoroacetate] | IC50 ([5]; Table B1, cells without percent sign): 230 nM
 |  |  |  |  | 13 nM | 180 nM | > 200 nM | 190 nM | N#Cc1ccccc1N1CCC(CC(=O)Nc2ccc3cc2CCc2cncc(c2)Nc2ncc(Cl)c(n2)N3)CC1 [Example A220, N-[6-Chloro-2,4,8,18,22-pentaazatetracyclo[14.3.1.1(3,7).1(9,13)]docosa-1(20),3(22),4,6,9(21),10,12,16,18-nonaen-12-yl]-2-[1-(2-cyanophenyl)piperidin-4-yl]acetamide tris(trifluoroacetate)] | ALK % of inhibition at a concentration of 500 nM or 1 mM [5, 11]: 18%
